Measurements as given in publication PMC12888861, “Antibacterial activity of enmetazobactam against Acinetobacter spp.: a molecular dissection of mechanism of action and resistance determinants” (Antimicrobial Agents and Chemotherapy, 2025).
≈ marks a conversion by molar mass, not a printed value. Like-named read-outs stand apart in the source and are kept apart here.

Legend:
[1] = tested on: A. baumannii ATCC 19606 cells; test: Cell morphology assay, bright-field microscopy; type: cell-based, Acinetobacter baumannii
Method: In order to confirm the involvement of PBPs as targets of enmetazobactam, cell morphology assays involving exposure to enmetazobactam and sulbactam were performed following the methodology described in Supplementary materials and methods.
To confirm the involvement of PBPs as targets of enmetazobactam, the cellular morphology of A. baumannii ATCC 19606 reference strain was analyzed after exposure to the compound at different concentrations. Bright-field microscopy was used to monitor the cell morphology. […] For microscopic visualization, aliquots of each sample were obtained, stained with crystal violet solution and observed using an Olympus BX61 microscope (Olympus).
Changes in cell morphology were determined on the basis of alterations in septal integrity, abnormal elongation, spheroplast formation and filamentation, patterns previously associated with the selective inhibition of PBP1, PBP2 and PBP3 in Gram-negative bacilli. Specifically, PBP1 inhibition has been linked to cell lysis, PBP2 inhibition has been linked to spherification, and PBP3 inhibition to defective cell division and filament formation (1, 2). The results were qualitatively compared across different treatments to infer the potential selectivity of enmetazobactam for specific PBPs.

[2] = tested on: A. non-baumannii isolates (n = 87); test: MIC, broth microdilution (EUCAST), A. non-baumannii isolates; type: cell-based, Acinetobacter spp. (non-baumannii)
Outline: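 Broth microdilution per EUCAST v.15 guidelines on clinical Acinetobacter isolates from a Spanish 2020 multicenter collection; enmetazobactam also tested alone. A. baumannii ATCC 19606 served as reference strain, in duplicate assays.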

With `C[n+]1ccn(C[C@@]2(C)[C@H](C(=O)[O-])N3C(=O)C[C@H]3S2(=O)=O)n1` [enmetazobactam] the cell morphology ([1]; A. baumannii ATCC 19606, overnight exposure at 1× MIC) was “elongated filaments”, the cell morphology ([1]; A. baumannii ATCC 19606, overnight exposure at 2× MIC) was “the filaments shortened in length” and the “MIC distribution 0.12” value [2] was 0. The MIC ([2]; Acinetobacter baylyi, isolate NO-Ab27, Acinetobacter baylyi, in combinations ETZ fixed at 8 mg/L, read-out: MIC) was 2 µg/mL, the MIC ([2]; Acinetobacter beijerinckii, isolate NO-Ab122, Acinetobacter beijerinckii, in combinations ETZ fixed at 8 mg/L, read-out: MIC) was 2 µg/mL and the MIC ([2]; Acinetobacter bereziniae, isolate NO-Ab70, Acinetobacter bereziniae, in combinations ETZ fixed at 8 mg/L, read-out: MIC) was 1 µg/mL. It also gave an MIC ([2]; Acinetobacter bereziniae, isolate NO-Ab84, Acinetobacter bereziniae, in combinations ETZ fixed at 8 mg/L, read-out: MIC) of 1 µg/mL, an MIC ([2]; Acinetobacter bereziniae, isolate NO-Ab104, Acinetobacter bereziniae, in combinations ETZ fixed at 8 mg/L, read-out: MIC) of 1 µg/mL and an MIC ([2]; Acinetobacter bereziniae, isolate NO-Ab114, Acinetobacter bereziniae, in combinations ETZ fixed at 8 mg/L, read-out: MIC) of 1 µg/mL. The MIC ([2]; Acinetobacter bereziniae, isolate NO-Ab115, Acinetobacter bereziniae, in combinations ETZ fixed at 8 mg/L, read-out: MIC) was 1 µg/mL, the MIC ([2]; Acinetobacter bereziniae, isolate NO-Ab116, Acinetobacter bereziniae, in combinations ETZ fixed at 8 mg/L, read-out: MIC) was 1 µg/mL and the MIC ([2]; Acinetobacter bereziniae, isolate NO-Ab117, Acinetobacter bereziniae, in combinations ETZ fixed at 8 mg/L, read-out: MIC) was 2 µg/mL. For the same compound, the MIC ([2]; Acinetobacter bereziniae, isolate NO-Ab129, Acinetobacter bereziniae, in combinations ETZ fixed at 8 mg/L, read-out: MIC) was 1 µg/mL, the MIC ([2]; Acinetobacter bereziniae, isolate NO-Ab156, Acinetobacter bereziniae, in combinations ETZ fixed at 8 mg/L, read-out: MIC) was 4 µg/mL and the MIC ([2]; Acinetobacter calcoaceticus, isolate NO-Ab85, Acinetobacter calcoaceticus, in combinations ETZ fixed at 8 mg/L, read-out: MIC) was 4 µg/mL. The MIC ([2]; Acinetobacter calcoaceticus, isolate NO-Ab94, Acinetobacter calcoaceticus, in combinations ETZ fixed at 8 mg/L, read-out: MIC) was 2 µg/mL, the MIC ([2]; Acinetobacter calcoaceticus, isolate NO-Ab108, Acinetobacter calcoaceticus, in combinations ETZ fixed at 8 mg/L, read-out: MIC) was 4 µg/mL and the MIC ([2]; Acinetobacter calcoaceticus, isolate NO-Ab161, Acinetobacter calcoaceticus, in combinations ETZ fixed at 8 mg/L, read-out: MIC) was 8 µg/mL. It also gave an MIC ([2]; Acinetobacter calcoaceticus, isolate NO-Ab198, Acinetobacter calcoaceticus, in combinations ETZ fixed at 8 mg/L, read-out: MIC) of 4 µg/mL, an MIC ([2]; Acinetobacter calcoaceticus, isolate NO-Ab205, Acinetobacter calcoaceticus, in combinations ETZ fixed at 8 mg/L, read-out: MIC) of 4 µg/mL and an MIC ([2]; Acinetobacter calcoaceticus, isolate NO-Ab211, Acinetobacter calcoaceticus, in combinations ETZ fixed at 8 mg/L, read-out: MIC) of 4 µg/mL. The MIC ([2]; Acinetobacter courvalinii, isolate NO-Ab216, Acinetobacter courvalinii, in combinations ETZ fixed at 8 mg/L, read-out: MIC) was 1 µg/mL, the MIC ([2]; Acinetobacter dispersus, isolate NO-Ab2, Acinetobacter dispersus, in combinations ETZ fixed at 8 mg/L, read-out: MIC) was 2 µg/mL and the MIC ([2]; Acinetobacter guillouiae, isolate NO-Ab69, Acinetobacter guillouiae, in combinations ETZ fixed at 8 mg/L, read-out: MIC) was 2 µg/mL. The MIC ([2]; Acinetobacter guillouiae, isolate NO-Ab74, Acinetobacter guillouiae, in combinations ETZ fixed at 8 mg/L, read-out: MIC) was 2 µg/mL, the MIC ([2]; Acinetobacter haemolyticus, isolate NO-Ab92, Acinetobacter haemolyticus, in combinations ETZ fixed at 8 mg/L) was 1 µg/mL and the MIC ([2]; Acinetobacter haemolyticus, isolate NO-Ab177, Acinetobacter haemolyticus, in combinations ETZ fixed at 8 mg/L) was 1 µg/mL. For the same compound, the MIC ([2]; Acinetobacter haemolyticus, isolate NO-Ab217, Acinetobacter haemolyticus, in combinations ETZ fixed at 8 mg/L) was 0.5 µg/mL, the MIC ([2]; Acinetobacter johnsonii, isolate NO-Ab101, Acinetobacter johnsonii, in combinations ETZ fixed at 8 mg/L, read-out: MIC) was 4 µg/mL and the MIC ([2]; Acinetobacter junii, isolate NO-Ab76, Acinetobacter junii, in combinations ETZ fixed at 8 mg/L, read-out: MIC) was 2 µg/mL. It also gave an MIC ([2]; Acinetobacter junii, isolate NO-Ab77, Acinetobacter junii, OXA-24/40, in combinations ETZ fixed at 8 mg/L, read-out: MIC) of 2 µg/mL, an MIC ([2]; Acinetobacter lactucae, isolate NO-Ab60, Acinetobacter dijkshoorniae, in combinations ETZ fixed at 8 mg/L, read-out: MIC) of 4 µg/mL and an MIC ([2]; Acinetobacter lactucae, isolate NO-Ab63, Acinetobacter dijkshoorniae, in combinations ETZ fixed at 8 mg/L, read-out: MIC) of 4 µg/mL. The MIC ([2]; Acinetobacter lactucae, isolate NO-Ab65, Acinetobacter dijkshoorniae, in combinations ETZ fixed at 8 mg/L, read-out: MIC) was 4 µg/mL, the MIC ([2]; Acinetobacter lactucae, isolate NO-Ab86, Acinetobacter dijkshoorniae, in combinations ETZ fixed at 8 mg/L, read-out: MIC) was 2 µg/mL and the MIC ([2]; Acinetobacter lactucae, isolate NO-Ab88, Acinetobacter dijkshoorniae, in combinations ETZ fixed at 8 mg/L, read-out: MIC) was 2 µg/mL. For the same compound, the MIC ([2]; Acinetobacter lactucae, isolate NO-Ab91, Acinetobacter dijkshoorniae, in combinations ETZ fixed at 8 mg/L, read-out: MIC) was 2 µg/mL, the MIC ([2]; Acinetobacter lactucae, isolate NO-Ab121, Acinetobacter dijkshoorniae, in combinations ETZ fixed at 8 mg/L, read-out: MIC) was 2 µg/mL and the MIC ([2]; Acinetobacter lactucae, isolate NO-Ab125, Acinetobacter dijkshoorniae, in combinations ETZ fixed at 8 mg/L, read-out: MIC) was 1 µg/mL. For the same compound, the MIC ([2]; Acinetobacter lactucae, isolate NO-Ab160, Acinetobacter dijkshoorniae, in combinations ETZ fixed at 8 mg/L, read-out: MIC) was 4 µg/mL, the MIC ([2]; Acinetobacter nosocomialis, isolate NO-Ab43, Acinetobacter nosocomialis, in combinations ETZ fixed at 8 mg/L, read-out: MIC) was 2 µg/mL and the MIC ([2]; Acinetobacter nosocomialis, isolate NO-Ab68, Acinetobacter nosocomialis, OXA-24/40, in combinations ETZ fixed at 8 mg/L, read-out: MIC) was 16 µg/mL. The MIC ([2]; Acinetobacter nosocomialis, isolate NO-Ab98, Acinetobacter nosocomialis, in combinations ETZ fixed at 8 mg/L, read-out: MIC) was 2 µg/mL, the MIC ([2]; Acinetobacter nosocomialis, isolate NO-Ab208, Acinetobacter nosocomialis, in combinations ETZ fixed at 8 mg/L, read-out: MIC) was 2 µg/mL and the MIC ([2]; Acinetobacter pittii, MBC set, isolate NO-Ab89, A. pittii, read-out: MIC) was 2 µg/mL (≈ 6.36 µM). The MIC ([2]; Acinetobacter pittii, isolate NO-Ab59, Acinetobacter pittii, in combinations ETZ fixed at 8 mg/L, read-out: MIC) was 2 µg/mL, the MIC ([2]; Acinetobacter pittii, isolate NO-Ab66, Acinetobacter pittii, in combinations ETZ fixed at 8 mg/L, read-out: MIC) was 2 µg/mL and the MIC ([2]; Acinetobacter pittii, isolate NO-Ab73, Acinetobacter pittii, in combinations ETZ fixed at 8 mg/L, read-out: MIC) was 2 µg/mL. For the same compound, the MIC ([2]; Acinetobacter pittii, isolate NO-Ab75, Acinetobacter pittii, in combinations ETZ fixed at 8 mg/L, read-out: MIC) was 2 µg/mL, the MIC ([2]; Acinetobacter pittii, isolate NO-Ab78, Acinetobacter pittii, in combinations ETZ fixed at 8 mg/L, read-out: MIC) was 2 µg/mL and the MIC ([2]; Acinetobacter pittii, isolate NO-Ab82, Acinetobacter pittii, in combinations ETZ fixed at 8 mg/L, read-out: MIC) was 2 µg/mL. For the same compound, the MIC ([2]; Acinetobacter pittii, isolate NO-Ab89, Acinetobacter pittii, in combinations ETZ fixed at 8 mg/L, read-out: MIC) was 2 µg/mL.
